According to ChEMBL document CHEMBL5291721, “A preclinical secondary pharmacology resource illuminates target-adverse drug reaction associations of marketed drugs” (Nat Commun, 2023):

Assays:
[1] = biological target: Sodium-dependent noradrenaline transporter (Homo sapiens, UniProt P23975)
[2] = biological target: D(1A) dopamine receptor (Homo sapiens, UniProt P21728)
[3] = biological target: T1, Progesterone receptor (Homo sapiens, UniProt P06401)
T1 sequence (P06401 whole entry): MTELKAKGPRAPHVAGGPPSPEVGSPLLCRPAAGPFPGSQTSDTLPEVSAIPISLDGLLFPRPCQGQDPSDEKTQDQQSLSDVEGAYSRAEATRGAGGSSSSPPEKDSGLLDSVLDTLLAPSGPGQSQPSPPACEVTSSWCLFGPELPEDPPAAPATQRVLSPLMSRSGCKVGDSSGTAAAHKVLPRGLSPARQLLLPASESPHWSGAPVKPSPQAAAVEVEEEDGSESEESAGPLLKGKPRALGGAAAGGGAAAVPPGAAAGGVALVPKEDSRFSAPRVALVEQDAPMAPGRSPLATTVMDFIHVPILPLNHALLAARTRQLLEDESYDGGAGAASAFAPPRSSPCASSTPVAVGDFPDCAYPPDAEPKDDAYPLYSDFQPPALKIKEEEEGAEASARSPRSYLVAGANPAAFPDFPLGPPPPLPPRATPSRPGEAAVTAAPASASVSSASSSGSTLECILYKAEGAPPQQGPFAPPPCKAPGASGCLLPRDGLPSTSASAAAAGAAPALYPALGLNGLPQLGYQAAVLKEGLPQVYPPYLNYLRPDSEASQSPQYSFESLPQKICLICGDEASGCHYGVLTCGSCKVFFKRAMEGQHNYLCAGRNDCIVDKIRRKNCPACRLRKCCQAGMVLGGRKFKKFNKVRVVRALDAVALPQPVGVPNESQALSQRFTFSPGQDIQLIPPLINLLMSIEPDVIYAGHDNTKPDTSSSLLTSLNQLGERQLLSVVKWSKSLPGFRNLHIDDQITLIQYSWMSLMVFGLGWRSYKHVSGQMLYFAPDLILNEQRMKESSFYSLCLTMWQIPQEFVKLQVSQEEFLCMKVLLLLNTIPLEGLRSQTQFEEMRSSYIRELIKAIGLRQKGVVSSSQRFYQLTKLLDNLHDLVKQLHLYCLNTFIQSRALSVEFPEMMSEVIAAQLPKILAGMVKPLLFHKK
Further: assay procedure not described here.

Sequence of D(1A) dopamine receptor (P21728 whole entry): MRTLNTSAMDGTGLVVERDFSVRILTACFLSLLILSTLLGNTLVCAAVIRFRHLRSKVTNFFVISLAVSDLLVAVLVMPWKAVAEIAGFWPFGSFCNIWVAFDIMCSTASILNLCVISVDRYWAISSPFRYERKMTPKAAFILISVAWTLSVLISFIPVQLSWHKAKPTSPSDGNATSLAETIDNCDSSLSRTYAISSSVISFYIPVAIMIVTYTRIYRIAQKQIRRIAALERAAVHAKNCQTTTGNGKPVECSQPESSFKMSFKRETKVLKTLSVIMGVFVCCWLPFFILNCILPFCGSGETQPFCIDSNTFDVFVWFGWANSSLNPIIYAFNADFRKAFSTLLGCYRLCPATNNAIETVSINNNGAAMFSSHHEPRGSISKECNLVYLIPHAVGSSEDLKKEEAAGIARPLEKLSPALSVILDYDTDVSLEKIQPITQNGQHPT
Sequence of Sodium-dependent noradrenaline transporter (P23975 whole entry): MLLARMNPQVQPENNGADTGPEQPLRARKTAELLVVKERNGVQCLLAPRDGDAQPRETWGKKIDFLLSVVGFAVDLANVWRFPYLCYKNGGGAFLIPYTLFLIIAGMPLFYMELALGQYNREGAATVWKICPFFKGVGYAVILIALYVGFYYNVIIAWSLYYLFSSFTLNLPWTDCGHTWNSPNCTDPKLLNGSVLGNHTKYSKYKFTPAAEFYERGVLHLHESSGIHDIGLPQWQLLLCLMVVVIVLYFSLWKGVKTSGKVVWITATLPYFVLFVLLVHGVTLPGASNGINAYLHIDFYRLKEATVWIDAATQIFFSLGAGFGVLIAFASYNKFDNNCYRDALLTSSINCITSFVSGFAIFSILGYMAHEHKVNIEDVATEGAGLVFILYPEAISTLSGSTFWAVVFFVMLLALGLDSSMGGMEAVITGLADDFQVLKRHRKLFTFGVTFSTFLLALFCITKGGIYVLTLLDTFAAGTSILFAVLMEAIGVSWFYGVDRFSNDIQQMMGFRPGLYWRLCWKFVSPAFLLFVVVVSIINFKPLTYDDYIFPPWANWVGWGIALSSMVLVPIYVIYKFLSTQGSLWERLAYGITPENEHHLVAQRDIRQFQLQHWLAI

| Structure (SMILES) | AC50 [1] [µM] | AC50 [2] [µM] | AC50 [3] [µM] |
| --- | --- | --- | --- |
| Cc1oc(=O)oc1COC(=O)[C@@H]1N2C(=O)[C@@H](NC(=O)[C@H](N)c3ccccc3)[C@H]2SC1(C)C [LENAMPICILLIN] | > 30 | > 30 | > 30 |
| c1ccc2c(SC3=NCCN3)c[nH]c2c1 [TINAZOLINE] | 5.56 | > 30 | 24 |
| CC(OCCN1CCCCCC1)(c1ccccc1)c1ccc(Cl)cc1 (stereo not drawn) [SETASTINE] | 5.82 | 6.96 | > 30 |
| COc1cc(C)c2c(Oc3cccc(C(F)(F)F)c3)c(OC)cc(NC(C)CCCN)c2n1 (stereo not drawn) [TAFENOQUINE] | 2.26 | 16.4 | 4.23 |
| NC(=O)[C@@H]1CC[C@@H]2CN1C(=O)N2OS(=O)(=O)O [AVIBACTAM] | > 30 | > 30 | > 30 |
| O=C(CCC/C=C\C[C@@H]1[C@@H](CC[C@@H](O)CCc2ccccc2)[C@H](O)C[C@@H]1O)OCCCCO[N+](=O)[O-] [LATANOPROSTENE BUNOD] | > 30 | > 30 | > 30 |
| CC(=O)OC[C@H]1O[C@@H](n2ncc(=O)[nH]c2=O)[C@H](OC(C)=O)[C@@H]1OC(C)=O [AZARIBINE] | > 30 | – | > 30 |
| COc1cccc(C(=O)CCN[C@@H](C)[C@H](O)c2ccccc2)c1 [OXYFEDRINE] | 2.65 | 16.4 | > 30 |
| CCCSc1nc(N[C@@H]2C[C@H]2c2ccc(F)c(F)c2)c2nnn([C@@H]3C[C@H](OCCO)[C@@H](O)[C@H]3O)c2n1 [TICAGRELOR] | 14.8 | 14.9 | 7.6 |
| C[C@H](N[C@@H](CCc1ccccc1)C(=O)O)C(=O)N1Cc2ccccc2C[C@H]1C(=O)O | > 30 | > 30 | > 30 |
| N#Cc1ccc(Oc2ccc3c(c2)COB3O)cc1 [CRISABOROLE] | > 30 | > 30 | > 30 |
| CC(COc1ccccc1)NC(C)C(O)c1ccc(O)cc1 (stereo not drawn) [ISOXSUPRINE] | 11.2 | 9.44 | > 30 |
| Cc1cn([C@H]2O[C@@H](CO)[C@H](O)[C@H]2F)c(=O)[nH]c1=O [CLEVUDINE] | > 30 | > 30 | > 30 |
| COc1ccc2c(C(=S)N(C)CC(=O)O)cccc2c1C(F)(F)F [TOLRESTAT] | > 30 | > 30 | > 30 |
| CC[N+](C)(CC)CCOC(=O)C(O)(c1ccccc1)C1CCCCC1 (stereo not drawn) [OXYPHENONIUM] | > 30 | > 30 | > 30 |
| C[C@@H]1C[C@H]2[C@@H]3C[C@H](F)C4=CC(=O)C=C[C@]4(C)[C@H]3[C@@H](O)C[C@]2(C)[C@@]1(O)C(=O)CO [PARAMETHASONE] | > 30 | > 30 | 5.1 |
| COc1ccc(OC)c(C(O)C(C)N)c1 (stereo not drawn) [METHOXAMINE] | > 30 | > 30 | > 30 |
| CCC[C@H](N[C@@H](C)C(=O)N1[C@H](C(=O)O)C[C@@H]2CCCC[C@@H]21)C(=O)OCC [PERINDOPRIL] | > 30 | > 30 | > 30 |
